Experimental data reported in ChEMBL document CHEMBL1201862, “PubChem BioAssay data set” (2004).
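Protocol summary: plate cells (96-well), add compound at 5 concentrations, incubate 48 h, interpolate endpoints linearly. Here, GI50 denotes the concentration required for 50% inhibition of growth.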 Active and inactive are the calls of the source. Cut-off read from the data, not from the text of the source: active = GI50 up to about 1.1 µM and inactive = higher.

Columns and labels:
Test in all cases: NCI anticancer screen, dose series, 48 h
SK-MEL-2 = system: SK-MEL-2
IGROV-1 = system: IGROV-1
SK-MEL-28 = system: SK-MEL-28
NCI/ADR-RES = system: NCI/ADR-RES
TK-10 = system: TK-10
SK-MEL-5 = system: SK-MEL-5
LOX IMVI = system: LOX IMVI
HOP-92 = system: HOP-92
EKVX = system: EKVX
T47D = system: T47D
786-0 = system: 786-0
OVCAR-3 = system: OVCAR-3
SR = system: SR
HCC 2998 = system: HCC 2998
MDA-MB-435 = system: MDA-MB-435
SN12C = system: SN12C
M14 = system: M14
Malme-3M = system: Malme-3M
OVCAR-5 = system: OVCAR-5
OVCAR-4 = system: OVCAR-4

Structure (SMILES)	GI50 (SK-MEL-2)	GI50 (IGROV-1)	GI50 (SK-MEL-28)	GI50 (NCI/ADR-RES)	GI50 (TK-10)	GI50 (SK-MEL-5)	GI50 (LOX IMVI)	GI50 (HOP-92)	GI50 (EKVX)	GI50 (T47D)	GI50 (786-0)	GI50 (OVCAR-3)	GI50 (SR)	GI50 (HCC 2998)	GI50 (MDA-MB-435)	GI50 (SN12C)	GI50 (M14)	GI50 (Malme-3M)	GI50 (OVCAR-5)	GI50 (OVCAR-4)
S=C(N/N=C/c1ccccn1)N1CCCCC1	0.0695 µM (active)	< 0.01 µM (active)	0.297 µM (active)	< 0.01 µM (active)	0.0205 µM (active)	< 0.0198 µM (active)	< 0.01 µM (active)	0.212 µM (active)	0.07 µM (active)	< 0.01 µM (active)	< 0.0137 µM (active)	< 0.01 µM (active)	< 0.01 µM (active)	1.22 µM (inactive)	0.163 µM (active)	< 0.0394 µM (active)	< 0.01 µM (active)	< 0.0397 µM (active)	–	–
Clc1ccc(OCc2nnc(COc3ccc(OCc4nnc(COc5ccc(Cl)cc5Cl)o4)c(Cl)c3)o2)c(Cl)c1	33.8 µM (inactive)	17.7 µM (inactive)	46.5 µM (inactive)	24.5 µM (inactive)	76 µM (inactive)	41.1 µM (inactive)	17.3 µM (inactive)	7.48 µM (inactive)	13.6 µM (inactive)	78.3 µM (inactive)	30.8 µM (inactive)	25.2 µM (inactive)	20.9 µM (inactive)	28.7 µM (inactive)	42.7 µM (inactive)	40.3 µM (inactive)	76.4 µM (inactive)	37.6 µM (inactive)	36.2 µM (inactive)	–
COc1cc(/C=C2\N=C(c3ccccc3)N(c3nc4c(Cl)cc(Cl)cc4s3)C2=O)ccc1O	23.4 µM (inactive)	29.1 µM (inactive)	52 µM (inactive)	31 µM (inactive)	39.9 µM (inactive)	24.5 µM (inactive)	20.5 µM (inactive)	21.3 µM (inactive)	17.9 µM (inactive)	24.8 µM (inactive)	35.9 µM (inactive)	24.2 µM (inactive)	11.1 µM (inactive)	19.8 µM (inactive)	27.5 µM (inactive)	22.2 µM (inactive)	40.5 µM (inactive)	–	71 µM (inactive)	29.2 µM (inactive)
Cc1ccc(S(=O)(=O)NNC(=O)c2cc(C)c(C)cc2N)cc1	–	> 100 µM (inactive)	> 100 µM (inactive)	> 100 µM (inactive)	–	> 100 µM (inactive)	> 100 µM (inactive)	> 100 µM (inactive)	> 100 µM (inactive)	96.6 µM (inactive)	> 100 µM (inactive)	94.2 µM (inactive)	> 100 µM (inactive)	> 100 µM (inactive)	> 100 µM (inactive)	> 100 µM (inactive)	> 10 µM (inactive)	> 100 µM (inactive)	> 100 µM (inactive)	> 100 µM (inactive)
Cc1cc(S(=O)(=O)Nc2nc3ccccc3n2-c2ccccc2)c(S)cc1Cl	> 100 µM (inactive)	> 100 µM (inactive)	> 100 µM (inactive)	> 100 µM (inactive)	–	50.6 µM (inactive)	> 100 µM (inactive)	> 100 µM (inactive)	> 100 µM (inactive)	9.12 µM (inactive)	> 100 µM (inactive)	> 100 µM (inactive)	69.7 µM (inactive)	> 100 µM (inactive)	> 100 µM (inactive)	–	> 100 µM (inactive)	> 100 µM (inactive)	> 100 µM (inactive)	> 100 µM (inactive)
CS/C(N)=N/c1cccc2ccccc12	> 10 µM (inactive)	> 10 µM (inactive)	> 10 µM (inactive)	> 10 µM (inactive)	> 10 µM (inactive)	> 10 µM (inactive)	> 10 µM (inactive)	> 10 µM (inactive)	> 10 µM (inactive)	> 10 µM (inactive)	> 10 µM (inactive)	> 10 µM (inactive)	> 10 µM (inactive)	> 10 µM (inactive)	> 10 µM (inactive)	> 10 µM (inactive)	> 10 µM (inactive)	> 10 µM (inactive)	–	> 10 µM (inactive)
COc1ccc(C(=O)c2nc3ccccc3nc2N2CCN(c3ccccc3)CC2)cc1OC	> 100 µM (inactive)	> 100 µM (inactive)	> 100 µM (inactive)	> 100 µM (inactive)	> 100 µM (inactive)	> 100 µM (inactive)	> 100 µM (inactive)	> 100 µM (inactive)	> 100 µM (inactive)	> 100 µM (inactive)	> 100 µM (inactive)	> 100 µM (inactive)	> 100 µM (inactive)	> 100 µM (inactive)	> 100 µM (inactive)	–	> 100 µM (inactive)	> 100 µM (inactive)	> 100 µM (inactive)	> 100 µM (inactive)
